Laboratory results taken from publication PMC11940238, “Ru(II) Complexes with 3,4-Dimethylphenylhydrazine: Exploring In Vitro Anticancer Activity and Protein Affinities” (Biomolecules, 2025).

Experiments:
[1] = biological target: T1, HSA (Homo sapiens, UniProt P02768); experiment: Spectrofluorimetric titration (fluorescence quenching) of HSA with the complexes; type: binding; conditions: for ΔHb / ΔSb: van't Hoff plot, 300-310 K
Experimental: The excitation wavelength was set to 285 nm, while the emission spectrum was recorded in the interval from 315 nm to 600 nm. […] solution (phosphate buffer pH = 7.6) with a concentration of 5 × 10^−6 M was titrated (5–10 times) with a complex solutions (5 × 10^−4 M). Before each addition of complexes 1 and 2 to the HSA solutions, the cuvette was thermostated for 2 min for each tested temperature, and then the fluorescence quenching spectra of proteins were recorded. Recordings started 2 min after adding complex 1/complex 2 solutions to reach the desired temperature. The data were analyzed according to the double-log Stern-Volmer (SV) equation: (1) log(I0−IQ/IQ)=logKb+nlog[Q] where Kb and n are the binding constants and the number of binding sites per HSA molecule. The binding constants were determined from the intercept values on the SV diagrams and the double log SV equation (Table 1). These values are further used for van’t Hoff plots, lnKb = f(T^−1), from which the Gibbs free energy, enthalpy, and entropy changes were determined.

[2] = biological target: T1, HSA; experiment: Spin-probing EPR: displacement of 16-DS from preformed HSA/16-DS; type: binding; conditions: for Unbound Component Contribution (XUB, %): 50 µM HSA, 250 µM 16-DS, 200 µM complex ([HSA]:[Ru-complex] 1:4), 1.2% v/v DMSO, phosphate buffer pH 7.4, EPR spectral simulation
Experimental: In order to investigate the nature of the interaction between the two Ru-complexes and human serum albumin (HSA), spin-probing/electron paramagnetic resonance methodology was used additionally. Namely, as HSA can bind up to seven molecules of long-chain fatty acids, and their doxyl derivatives, which are EPR-active compounds, HSA was first incubated with the fivefold concentration of 16-doxyl-stearic acid (16-DS, Sigma-Aldrich), and subsequently the aliquots of the Ru-complexes solutions were added to the HSA/16-DS mixture. For this experiment, HSA was dissolved in the 100 mM phosphate buffer, pH 7.4, and its concentration was 0.2 mM. The ethanol solution of 16-DS was transferred to the bottom of the test tube, and ethanol was dried in the Eppendorf Concentrator plus vacuum centrifuge. After the ethanol completely evaporated, an appropriate amount of HSA solution was added to the tube containing 16-DS. The concentration of the 16-DS in HSA/16-DS solution was 1 mM, i.e., [HSA]:[16-DS] molar ratio was 1:5. This stock solution was incubated until the full binding of 16-DS to HSA was achieved. The incubation involved occasional gentle vortexing and thermostating at 37 °C in a water bath.
In the next step, Ru(II) complexes were dissolved in DMSO and diluted using 100 mM phosphate buffer, pH 7.4. The concentrations of both Ru(II) complexes stock solutions were 266.67 µM. Small volumes of these solutions were added to HSA/16-DS preparation and diluted with the phosphate buffer. Afterward, the samples were incubated for 30 min before the EPR measurement. […]
The samples prepared as previously described were aspirated into the capillary gas-permeable Teflon tubes (Zeus Industries, Inc., Orangeburg, SC, USA) and placed into the resonator cavity of the X-band EPR spectrometer Bruker Elexsys II E500. […] The acquired EPR spectra were analyzed using the Bruker Xepr software and simulated by SimLabel, a graphical user interface software that is an extension of EasySpin [64], the EPR simulation package (the version of EasySpin used was 6.0.6). […]

[3] = system: HS-5 cells; experiment: MTT test on healthy cells; type: cell-based; conditions: same concentrations as for cancer cells, 24 h
Experimental: Cells were harvested when they reached 85–90% confluent. 100 µL of cell suspension (15.000 cells per well) was poured into the wells of the 96-well plate and incubated overnight to allow the cells to attach to the well. The cells were treated with 1 or 2 in concentrations ranging from 0.19 to 200 µM. Untreated cells were used as control. After 24 h, 10 µL MTT (5 mg/mL) was added to each well. Cultures were incubated for […] at 37 °C. The reduction process was stopped by adding 100 µL/well of 10% SDS acidified with 1N HCl. Dissolution of the resulting blue color was continued overnight in the incubator at 37 °C. All treatments were done in replicates of three. The absorbance was read at 540 nm on an ELISA reader (RT-6100, Rayto, Shenzhen, China). The ratio of absorbances of treated to untreated living cells was used to measure viability. Cytotoxic activity was recorded as IC50, which is the concentration necessary to reduce the absorbance of treated cells by 50% compared to the control.

[4] = system: MMP9; experiment: Gelatin gel electrophoresis of supernatants, MMP9 activity, MIA PaCa-2; type: cell-based, human
Experimental: MDA-MB-231 and MIA PaCa-2 cells were treated with 50 µM of complex 2 or 75 µM and 100 µM of complex 1, respectively. The treatments lasted 24 and 48 h. Untreated cells were used as control. The supernatants were collected for further analysis. Electrophoresis in a polyacrylamide gel with an add-on of 0.1% SDS and 0.2% gelatin was used to measure metalloproteinase 2 and 9 activity (MMP2 and MMP9).
The gels were imaged with a ChemiDoc Imaging System (Bio-Rad Laboratories, Hercules, CA, USA) and estimated by densitometric scanning using the Image Lab (Bio-Rad Laboratories, Inc. Version 6.0.0.25) software tool.

[5] = system: MDA-MB-231 cells; experiment: Examination of the cell cycle; type: cell-based, human; conditions: MDA-MB-231, 24 h, p < 0.01
[6] = system: MIA PaCa-2 cells; experiment: Examination of the cell cycle; type: cell-based, human; conditions: MIA PaCa-2, 24 h

T1 sequence (P02768 25-609): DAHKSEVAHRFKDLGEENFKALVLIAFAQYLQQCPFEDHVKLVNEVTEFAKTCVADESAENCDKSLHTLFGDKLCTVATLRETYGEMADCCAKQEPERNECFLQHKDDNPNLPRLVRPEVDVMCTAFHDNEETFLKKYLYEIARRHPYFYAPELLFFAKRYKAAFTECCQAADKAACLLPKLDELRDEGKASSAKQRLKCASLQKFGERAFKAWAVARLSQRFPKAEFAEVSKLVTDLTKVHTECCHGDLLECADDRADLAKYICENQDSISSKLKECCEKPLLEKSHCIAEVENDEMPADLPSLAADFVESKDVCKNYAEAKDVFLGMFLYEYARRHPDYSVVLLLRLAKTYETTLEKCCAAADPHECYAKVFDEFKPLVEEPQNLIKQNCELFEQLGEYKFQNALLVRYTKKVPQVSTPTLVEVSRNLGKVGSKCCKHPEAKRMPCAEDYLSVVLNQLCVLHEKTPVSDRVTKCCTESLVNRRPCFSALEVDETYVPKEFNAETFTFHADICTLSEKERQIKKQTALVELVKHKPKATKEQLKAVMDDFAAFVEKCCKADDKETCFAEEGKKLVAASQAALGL

Molecule | n (number of binding sites) ([1]; 300 K) | ΔGb ([1]; 300 K) | n (number of binding sites) ([1]; 305 K) | ΔGb ([1]; 305 K) | n (number of binding sites) ([1]; 310 K) | ΔGb ([1]; 310 K) | ΔHb [1] | ΔSb [1] | Unbound Component Contribution (XUB, %) [2] | viability of HS-5 cells [3] | MMP9 activity ([4]; MIA PaCa-2, 50 µM complex 2, 24 and 48 h treatments) | number of cells in the G0/G1 phase [5] | number of cells in the S phase [5] | effect on the cell cycle [6] | change in Gibbs binding energy, range over the examined temperatures ([1]; 27-37 °C) | Ihf/Ilf parameter (amplitude ratio of high-field and low-field peaks) ([2]; [HSA]:[Ru-complex] 1:0.5 to 1:4, qualitative) | MMP9 activity ([4]; MIA PaCa-2, 100 µM complex 1, after 48 h, compared to control and 24 h treatment (p < 0.05))
Cc1ccc(C(C)C)cc1.Cc1ccc(C(C)C)cc1.Cc1ccc(NN)cc1C.[Cl-].[Cl][Ru].[Cl][Ru][Cl] [complex 2, Chlorido(μ-chlorido)(η^6-p-cymene)(μ-3,4-dimethylphenylhydrazine-κ^2N,N′)ruthenium(II)-dimer chloride] | 1.00 | -25.6 kJ/mol | 1.03 | -27.4 kJ/mol | 1.09 | -29.1 kJ/mol | 78.9 kJ/mol | 348 J mol^−1 K^−1 | 0.71 ± 0.02% | did not affect the viability | did not affect | significantly decreased | increased | did not affect |  |  | 
Dichlorido(η^6-p-cymene)(3,4-dimethylphenylhydrazine-κN)ruthenium(II) [complex 1] | 1.05 | -28.3 kJ/mol | 1.10 | -31.2 kJ/mol | 1.21 | -34.2 kJ/mol | 149.8 kJ/mol | 590 J mol^−1 K^−1 | 0.73 ± 0.02% | did not affect the viability |  | significantly decreased | increased | did not affect | −28.3 to −34.2 kJ mol^−1 | more pronounced increase | significantly lower
